Test results published in ChEMBL document CHEMBL1201862, “PubChem BioAssay data set” (2004).
The source made the active and inactive calls.

What was measured:
[1] = molecular target: T1, Polyadenylate-binding protein 1 (Homo sapiens, UniProt P11940); assay: MLLE binding blockers, Cy5 peptide tracer – biochemical, fluorescence polarization, Cy5-PAM2 peptide, secondary, miRNA deadenylation inhibitor project, dose response (AID 602260); assay type: functional; details: read-out: IC50_Mean
[2] = molecular target: T1, Polyadenylate-binding protein 1; assay: MLLE domain peptide-binding blockers, IC50 – biochemical, fluorescence polarization, FITC-PAM2 peptide, dose response (AID 602259); assay type: functional; details: read-out: IC50_Mean
[3] = molecular target: Voltage-gated inwardly rectifying potassium channel KCNH2 (Homo sapiens, UniProt Q12809); assay: concentration-dependent hERG rescue from blockers – cell-based, thallium flux, dose response (AID 2121); assay type: ADME
Estrogen receptor beta [4] = molecular target: T2, Estrogen receptor beta (Homo sapiens, UniProt Q92731);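 further: recombinant ER-beta bound to coactivator SRC1 peptide in presence of estradiol agonist; inhibitors block coactivator peptide binding and lower the FRET signal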
Estrogen receptor beta [5] = molecular target: T2, Estrogen receptor beta; assay: blockers of SRC-3 recruitment to ERβ – biochemical, ELISA, streptavidin-HRP readout, orthogonal assay, confirmation (AID 1060)
Estrogen receptor = molecular target: T3, Estrogen receptor (Homo sapiens, UniProt P03372);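 further: potency for inhibiting coactivator peptide recruitment to the receptor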
T3 sequence (P03372 whole entry): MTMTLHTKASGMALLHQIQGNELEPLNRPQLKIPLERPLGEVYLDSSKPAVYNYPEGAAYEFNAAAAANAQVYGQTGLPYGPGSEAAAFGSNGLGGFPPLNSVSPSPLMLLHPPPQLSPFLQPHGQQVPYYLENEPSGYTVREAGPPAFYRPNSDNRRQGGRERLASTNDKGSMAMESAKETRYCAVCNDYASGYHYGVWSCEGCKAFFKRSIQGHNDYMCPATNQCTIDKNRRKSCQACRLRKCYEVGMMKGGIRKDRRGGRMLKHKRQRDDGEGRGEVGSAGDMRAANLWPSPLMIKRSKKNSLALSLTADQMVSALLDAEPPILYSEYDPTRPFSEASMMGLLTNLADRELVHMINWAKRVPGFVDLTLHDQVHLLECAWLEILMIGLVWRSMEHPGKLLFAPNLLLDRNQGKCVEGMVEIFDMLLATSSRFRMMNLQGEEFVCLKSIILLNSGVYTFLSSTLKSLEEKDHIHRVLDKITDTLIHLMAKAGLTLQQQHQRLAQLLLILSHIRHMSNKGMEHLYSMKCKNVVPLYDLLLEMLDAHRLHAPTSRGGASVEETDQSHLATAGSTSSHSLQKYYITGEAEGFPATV

[6] = molecular target: T4, Carboxy-terminal domain RNA polymerase II polypeptide A small phosphatase 1 (Homo sapiens, UniProt Q9GZU7); assay: CTDSP1 inhibitors, concentration-response, biochemical, absorbance readout, ultra-high-throughput screen actives (AID 540297); assay type: functional
T4 sequence (Q9GZU7 whole entry): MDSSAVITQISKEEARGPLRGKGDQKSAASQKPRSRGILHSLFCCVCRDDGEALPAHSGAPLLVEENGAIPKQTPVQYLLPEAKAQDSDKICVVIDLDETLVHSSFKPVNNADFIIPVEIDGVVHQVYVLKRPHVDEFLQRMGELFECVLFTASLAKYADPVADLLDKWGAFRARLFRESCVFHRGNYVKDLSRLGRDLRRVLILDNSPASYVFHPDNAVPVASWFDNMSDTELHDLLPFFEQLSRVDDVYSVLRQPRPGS

[7] = Luminescence Cell-Based Dose Confirmation HTS to Identify Inhibitors of Platelet Dense Granule Release. [Related pubchem assays: 1663 (Primary HTS), 1678 (Summary of Project)]; assay type: functional
[8] = molecular target: Luciferin 4-monooxygenase (Photinus pyralis, UniProt P08659); assay: inhibition of purified Photinus pyralis luciferase – biochemical, luminescence, dose response (AID 1891)
[9] = molecular target: Induced myeloid leukemia cell differentiation protein Mcl-1 (Homo sapiens, UniProt Q07820); assay: blockers of MCL1 binding to BIM peptide – biochemical, fluorescence polarization, BIM-BH3 peptide, 1536-well, dose response (AID 2217)
Bcl-2-like protein 1 = Bcl-2-like protein 1 (Homo sapiens, UniProt Q07817); assay: blockers of BCLXL peptide binding – biochemical, fluorescence polarization, 1536-well, selectivity assay for MCL1 inhibitor project, dose response (AID 2218)
Caspase-6 = molecular target: T5, Caspase-6 (Homo sapiens, UniProt P55212); assay: inhibition of CASP6 peptide cleavage – biochemical, VEID-R110 fluorescence, cherry-pick, dose response (AID 720632)
T5 sequence (P55212 whole entry): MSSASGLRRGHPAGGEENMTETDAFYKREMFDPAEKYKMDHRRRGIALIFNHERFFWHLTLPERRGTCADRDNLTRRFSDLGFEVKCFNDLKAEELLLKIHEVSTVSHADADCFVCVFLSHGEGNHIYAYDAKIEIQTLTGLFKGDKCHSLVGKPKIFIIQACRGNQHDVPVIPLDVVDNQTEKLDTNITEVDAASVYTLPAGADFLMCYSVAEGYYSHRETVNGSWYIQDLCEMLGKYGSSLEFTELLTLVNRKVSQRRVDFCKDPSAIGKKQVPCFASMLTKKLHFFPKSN

Albumin = Albumin (Bos taurus, UniProt P02769); assay: Counterscreen for inhibitors of T-cell receptor (TCR)-CD3 interaction: Fluorescence-based biochemical high throughput dose response assay to identify inhibitors of T-cell receptor (TCR)-CD3 interaction using a TAMRA-labeled BSA probe.; assay type: functional
[10] = molecular target: Ubiquitin carboxyl-terminal hydrolase BAP1 (Homo sapiens, UniProt Q92560); assay: inhibition of BAP1 ubiquitin hydrolase activity – biochemical, dose response (AID 714); assay type: functional
[11] = molecular target: T6, Zinc finger protein mex-5 (Caenorhabditis elegans, UniProt Q9XUB2); assay: potency of MEX-5 RNA-binding blockers – biochemical, C. elegans, fluorescence polarization, dose response (AID 1960)
T6 sequence (Q9XUB2 whole entry): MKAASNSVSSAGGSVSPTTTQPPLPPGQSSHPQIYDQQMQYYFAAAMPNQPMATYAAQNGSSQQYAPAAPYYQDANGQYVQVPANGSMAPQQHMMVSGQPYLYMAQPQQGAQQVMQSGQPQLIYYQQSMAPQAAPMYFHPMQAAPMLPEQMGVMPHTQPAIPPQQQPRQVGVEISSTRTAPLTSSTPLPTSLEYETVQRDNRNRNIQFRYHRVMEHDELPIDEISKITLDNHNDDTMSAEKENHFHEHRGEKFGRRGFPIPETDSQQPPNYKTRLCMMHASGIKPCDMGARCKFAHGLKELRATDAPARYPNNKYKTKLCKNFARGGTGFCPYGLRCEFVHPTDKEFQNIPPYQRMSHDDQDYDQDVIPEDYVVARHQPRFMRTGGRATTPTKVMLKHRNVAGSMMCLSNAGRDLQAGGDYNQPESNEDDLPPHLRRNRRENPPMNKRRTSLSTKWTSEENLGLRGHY

[12] = molecular target: T7, RNA-binding protein pos-1 (Caenorhabditis elegans, UniProt G5EF15); assay: disruptors of C. elegans POS-1 RNA interaction – biochemical, fluorescence polarization, dose response (AID 1964);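 further: purified POS-1 fused to maltose binding protein made in E. coli; potency of compounds blocking POS-1 binding to fluorescent RNA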
T7 sequence (G5EF15 whole entry): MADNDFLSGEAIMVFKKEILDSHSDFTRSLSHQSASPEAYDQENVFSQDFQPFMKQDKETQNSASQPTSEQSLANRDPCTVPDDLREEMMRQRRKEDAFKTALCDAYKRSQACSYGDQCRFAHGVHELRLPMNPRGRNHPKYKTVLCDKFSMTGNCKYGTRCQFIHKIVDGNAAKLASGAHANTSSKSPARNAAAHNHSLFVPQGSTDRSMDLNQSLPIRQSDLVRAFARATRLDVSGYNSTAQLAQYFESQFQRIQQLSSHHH

Protein skinhead-1 = molecular target: T8, Protein skinhead-1 (Caenorhabditis elegans, UniProt P34707); assay type: functional
T8 sequence (P34707 whole entry): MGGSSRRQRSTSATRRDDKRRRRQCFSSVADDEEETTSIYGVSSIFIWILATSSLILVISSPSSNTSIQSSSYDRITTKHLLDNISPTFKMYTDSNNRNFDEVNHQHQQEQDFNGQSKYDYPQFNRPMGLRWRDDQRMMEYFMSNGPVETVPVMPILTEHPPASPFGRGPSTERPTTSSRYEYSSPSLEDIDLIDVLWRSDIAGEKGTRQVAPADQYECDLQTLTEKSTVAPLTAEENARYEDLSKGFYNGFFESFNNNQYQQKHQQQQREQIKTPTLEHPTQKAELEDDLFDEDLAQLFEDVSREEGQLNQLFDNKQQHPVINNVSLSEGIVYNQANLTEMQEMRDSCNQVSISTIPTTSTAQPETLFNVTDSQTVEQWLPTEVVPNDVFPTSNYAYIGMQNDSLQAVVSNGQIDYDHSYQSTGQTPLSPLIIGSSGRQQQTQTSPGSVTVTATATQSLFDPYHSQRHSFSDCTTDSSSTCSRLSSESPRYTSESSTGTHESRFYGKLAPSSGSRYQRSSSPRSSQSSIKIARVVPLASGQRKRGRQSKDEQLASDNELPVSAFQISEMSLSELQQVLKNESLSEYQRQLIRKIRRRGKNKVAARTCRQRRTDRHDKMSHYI

[13] = molecular target: 5-hydroxytryptamine receptor 1A (Homo sapiens, UniProt P08908); assay type: functional
[14] = molecular target: T9, Tyrosine-protein phosphatase non-receptor type 7 (Homo sapiens, UniProt P35236); assay: HePTP tyrosine phosphatase activity blockers – biochemical, absorbance, leukemia target, primary screen (AID 521); assay type: functional
T9 sequence (P35236 whole entry): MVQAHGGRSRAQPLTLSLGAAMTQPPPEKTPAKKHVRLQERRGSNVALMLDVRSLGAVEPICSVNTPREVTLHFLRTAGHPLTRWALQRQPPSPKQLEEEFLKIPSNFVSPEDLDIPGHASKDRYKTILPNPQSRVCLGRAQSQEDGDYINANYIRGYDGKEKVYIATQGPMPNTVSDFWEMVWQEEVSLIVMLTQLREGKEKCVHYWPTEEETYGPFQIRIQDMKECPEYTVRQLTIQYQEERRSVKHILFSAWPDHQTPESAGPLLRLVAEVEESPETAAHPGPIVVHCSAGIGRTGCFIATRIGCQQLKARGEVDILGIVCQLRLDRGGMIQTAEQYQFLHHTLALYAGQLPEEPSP

[15] = molecular target: T10, Calpain-2 catalytic subunit (Sus scrofa, UniProt P43367); assay: m-calpain protease blockers, concentration series – biochemical, fluorogenic peptide substrate, dose response (AID 1420); assay type: functional
T10 sequence (P43367 whole entry): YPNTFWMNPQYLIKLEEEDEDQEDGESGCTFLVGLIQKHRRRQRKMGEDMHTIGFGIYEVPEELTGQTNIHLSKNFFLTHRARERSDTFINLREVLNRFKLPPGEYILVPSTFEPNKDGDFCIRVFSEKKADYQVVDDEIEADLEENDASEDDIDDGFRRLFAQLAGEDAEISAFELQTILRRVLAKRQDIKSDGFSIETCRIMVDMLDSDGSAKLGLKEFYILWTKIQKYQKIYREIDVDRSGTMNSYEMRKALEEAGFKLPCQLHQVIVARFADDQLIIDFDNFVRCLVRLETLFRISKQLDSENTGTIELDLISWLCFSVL

[16] = Luminescence Cell-Based Dose Confirmation HTS to Identify Inhibitors of Polyadenylation.; assay type: functional
Cytochrome P450 2D6 = Cytochrome P450 2D6 (Homo sapiens, UniProt P10635);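 further: CYP2D6 member of a cytochrome P450 panel assay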
[17] = Luminescence Cell-Based Dose Response HTS to Identify Activators of Luciferase Translation or Activity in H4 […] Cells. [Related pubchem assays: 1829 (Project Summary), 1814 (Primary HTS)]; assay type: functional
[18] = Luminescence Cell-Based Dose Response to Identify Activators of Luciferase Translation or Activity in H4-C Neuroglioblastoma Cells. [Related pubchem assays: 1829 (Project Summary), 1814 (Primary HTS)]; assay type: functional
Cytochrome P450 2C19 = Cytochrome P450 2C19 (Homo sapiens, UniProt P33261); assay: Cytochrome panel assay with activity outcomes. Panel member name: p450-cyp2c19 Compounds with AC50 equal or less than 10 uM are considered active; assay type: functional; details: read-out: AC50
H4 = assay: Luminescence Cell-Based Dose Response HTS to Identify Activators of 5'UTR Stem-Loop Driven Prion Protein mRNA Translation in H4 Neuroglioblastoma Cells. [Related pubchem assays: 1829 (Project Summary), 1814 (Primary HTS)]; assay type: functional; details: Homo sapiens
[19] = Luminescence Cell-Based Dose Response to Identify Activators of 5'UTR Stem-Loop Driven Prion Protein mRNA Translation in H4-C Neuroglioblastoma Cells. [Related pubchem assays: 1829 (Project Summary), 1814 (Primary HTS)]; assay type: functional
[20] = Luminescence Cell-Based Dose Confirmation to Identify Activators of 5'UTR Stem-Loop Driven Alpha-Synuclein mRNA Translation in H4 Neuroglioblastoma Cells. [Related pubchem assays: 1829 (Project Summary), 1814 (Primary HTS)]; assay type: functional

T2 sequence (Q92731 whole entry): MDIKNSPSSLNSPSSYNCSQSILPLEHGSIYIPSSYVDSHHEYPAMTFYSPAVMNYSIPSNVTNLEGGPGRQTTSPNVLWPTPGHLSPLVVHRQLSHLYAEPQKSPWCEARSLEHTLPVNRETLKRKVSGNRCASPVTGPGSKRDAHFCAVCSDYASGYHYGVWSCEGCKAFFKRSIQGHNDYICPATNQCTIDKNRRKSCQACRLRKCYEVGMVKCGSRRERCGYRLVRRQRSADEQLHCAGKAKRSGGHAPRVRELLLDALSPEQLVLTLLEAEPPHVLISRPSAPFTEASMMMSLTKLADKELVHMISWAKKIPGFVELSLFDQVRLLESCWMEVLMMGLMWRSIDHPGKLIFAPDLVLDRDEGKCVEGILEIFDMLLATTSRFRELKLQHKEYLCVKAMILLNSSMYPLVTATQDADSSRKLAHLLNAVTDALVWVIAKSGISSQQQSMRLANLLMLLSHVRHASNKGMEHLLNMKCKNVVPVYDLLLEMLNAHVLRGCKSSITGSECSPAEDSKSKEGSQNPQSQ
T1 sequence (P11940 whole entry, the tested form may be a part): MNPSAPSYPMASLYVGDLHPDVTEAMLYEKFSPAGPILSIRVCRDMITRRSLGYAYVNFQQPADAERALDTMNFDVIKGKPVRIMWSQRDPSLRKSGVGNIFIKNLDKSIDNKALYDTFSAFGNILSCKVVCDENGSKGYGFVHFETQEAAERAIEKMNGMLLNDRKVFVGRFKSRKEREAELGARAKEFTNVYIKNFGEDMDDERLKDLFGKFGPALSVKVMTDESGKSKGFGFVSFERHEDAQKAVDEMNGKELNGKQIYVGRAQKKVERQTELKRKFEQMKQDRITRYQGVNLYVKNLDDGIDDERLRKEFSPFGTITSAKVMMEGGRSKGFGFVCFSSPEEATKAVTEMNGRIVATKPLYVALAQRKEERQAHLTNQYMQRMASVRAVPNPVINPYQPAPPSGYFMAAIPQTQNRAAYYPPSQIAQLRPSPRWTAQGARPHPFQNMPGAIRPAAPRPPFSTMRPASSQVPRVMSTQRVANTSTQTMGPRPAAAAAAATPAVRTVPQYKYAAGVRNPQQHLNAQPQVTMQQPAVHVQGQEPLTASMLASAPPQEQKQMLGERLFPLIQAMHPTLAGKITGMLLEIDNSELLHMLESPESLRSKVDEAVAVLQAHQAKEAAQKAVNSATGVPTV
Sequence of 5-hydroxytryptamine receptor 1A (P08908 whole entry): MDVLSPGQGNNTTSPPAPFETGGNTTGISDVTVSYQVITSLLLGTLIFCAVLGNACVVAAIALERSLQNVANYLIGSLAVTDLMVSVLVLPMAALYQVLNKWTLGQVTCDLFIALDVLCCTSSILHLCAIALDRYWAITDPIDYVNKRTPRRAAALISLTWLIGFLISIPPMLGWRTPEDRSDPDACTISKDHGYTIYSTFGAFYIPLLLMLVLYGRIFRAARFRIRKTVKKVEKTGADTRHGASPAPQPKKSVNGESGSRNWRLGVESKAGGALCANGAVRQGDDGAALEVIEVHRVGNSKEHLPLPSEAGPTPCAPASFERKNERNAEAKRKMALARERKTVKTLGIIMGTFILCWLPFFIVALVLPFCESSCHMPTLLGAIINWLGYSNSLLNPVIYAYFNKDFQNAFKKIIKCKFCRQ
Sequence of Albumin (P02769 whole entry): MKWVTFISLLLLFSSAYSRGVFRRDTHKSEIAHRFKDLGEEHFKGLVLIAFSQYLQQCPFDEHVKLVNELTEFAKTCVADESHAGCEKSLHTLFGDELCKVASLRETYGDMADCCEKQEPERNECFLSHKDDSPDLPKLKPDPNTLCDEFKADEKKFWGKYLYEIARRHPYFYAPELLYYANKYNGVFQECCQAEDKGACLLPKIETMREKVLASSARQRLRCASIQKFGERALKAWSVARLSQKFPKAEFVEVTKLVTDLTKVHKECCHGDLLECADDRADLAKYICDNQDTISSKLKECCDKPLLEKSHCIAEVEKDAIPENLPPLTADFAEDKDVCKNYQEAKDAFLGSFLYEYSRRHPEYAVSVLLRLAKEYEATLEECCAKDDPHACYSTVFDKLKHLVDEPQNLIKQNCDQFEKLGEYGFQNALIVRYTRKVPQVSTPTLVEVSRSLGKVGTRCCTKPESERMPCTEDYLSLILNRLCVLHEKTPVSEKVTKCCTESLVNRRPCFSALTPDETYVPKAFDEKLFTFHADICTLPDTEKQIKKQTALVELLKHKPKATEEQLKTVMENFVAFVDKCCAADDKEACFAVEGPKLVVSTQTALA
Sequence of Induced myeloid leukemia cell differentiation protein Mcl-1 (Q07820 whole entry): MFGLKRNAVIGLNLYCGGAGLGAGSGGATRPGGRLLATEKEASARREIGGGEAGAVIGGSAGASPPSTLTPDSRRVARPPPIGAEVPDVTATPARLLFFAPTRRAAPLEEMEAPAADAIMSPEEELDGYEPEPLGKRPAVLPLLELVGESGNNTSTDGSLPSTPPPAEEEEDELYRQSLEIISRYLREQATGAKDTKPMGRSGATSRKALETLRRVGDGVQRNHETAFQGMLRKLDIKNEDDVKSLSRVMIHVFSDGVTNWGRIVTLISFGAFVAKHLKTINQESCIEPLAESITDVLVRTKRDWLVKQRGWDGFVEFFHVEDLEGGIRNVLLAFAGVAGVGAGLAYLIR
Sequence of Bcl-2-like protein 1 (Q07817 whole entry): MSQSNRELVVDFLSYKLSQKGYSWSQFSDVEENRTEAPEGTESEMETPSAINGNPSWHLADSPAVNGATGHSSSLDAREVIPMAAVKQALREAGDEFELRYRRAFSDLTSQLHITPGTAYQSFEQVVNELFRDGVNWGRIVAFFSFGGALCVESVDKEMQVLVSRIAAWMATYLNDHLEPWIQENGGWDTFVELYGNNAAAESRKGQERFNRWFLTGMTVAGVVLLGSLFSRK
Sequence of Ubiquitin carboxyl-terminal hydrolase BAP1 (Q92560 whole entry): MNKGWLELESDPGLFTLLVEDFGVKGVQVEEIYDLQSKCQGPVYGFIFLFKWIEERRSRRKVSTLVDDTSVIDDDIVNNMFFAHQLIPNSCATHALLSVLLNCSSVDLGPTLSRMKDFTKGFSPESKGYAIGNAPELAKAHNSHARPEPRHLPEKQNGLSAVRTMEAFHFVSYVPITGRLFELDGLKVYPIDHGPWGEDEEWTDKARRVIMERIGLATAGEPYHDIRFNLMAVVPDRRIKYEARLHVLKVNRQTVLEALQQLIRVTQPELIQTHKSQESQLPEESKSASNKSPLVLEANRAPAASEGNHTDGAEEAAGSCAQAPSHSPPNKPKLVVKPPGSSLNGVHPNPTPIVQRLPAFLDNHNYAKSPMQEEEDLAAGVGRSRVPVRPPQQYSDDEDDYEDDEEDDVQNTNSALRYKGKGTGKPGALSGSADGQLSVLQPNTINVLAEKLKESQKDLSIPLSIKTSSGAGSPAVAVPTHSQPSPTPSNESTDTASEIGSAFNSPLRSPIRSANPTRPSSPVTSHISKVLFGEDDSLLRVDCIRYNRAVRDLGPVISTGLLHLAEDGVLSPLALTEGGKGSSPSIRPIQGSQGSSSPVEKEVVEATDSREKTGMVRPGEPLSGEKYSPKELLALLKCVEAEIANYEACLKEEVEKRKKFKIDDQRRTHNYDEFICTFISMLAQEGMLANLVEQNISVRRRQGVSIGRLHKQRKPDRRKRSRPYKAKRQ
Sequence of Luciferin 4-monooxygenase (P08659 whole entry): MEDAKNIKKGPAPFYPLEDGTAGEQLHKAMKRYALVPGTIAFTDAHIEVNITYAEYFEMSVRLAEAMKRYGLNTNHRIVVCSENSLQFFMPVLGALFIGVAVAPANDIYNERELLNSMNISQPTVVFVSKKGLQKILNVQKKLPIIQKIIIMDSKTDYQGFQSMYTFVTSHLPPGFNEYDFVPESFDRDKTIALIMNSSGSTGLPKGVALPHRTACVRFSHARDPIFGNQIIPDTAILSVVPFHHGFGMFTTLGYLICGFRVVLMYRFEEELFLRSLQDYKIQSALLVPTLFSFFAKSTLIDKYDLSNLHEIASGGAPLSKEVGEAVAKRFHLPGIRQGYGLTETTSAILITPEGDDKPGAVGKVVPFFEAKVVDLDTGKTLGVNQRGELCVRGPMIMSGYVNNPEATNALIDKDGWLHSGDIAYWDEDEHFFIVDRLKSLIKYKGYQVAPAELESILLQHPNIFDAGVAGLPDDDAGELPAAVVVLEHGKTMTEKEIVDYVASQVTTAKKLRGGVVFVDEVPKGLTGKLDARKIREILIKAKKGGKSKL
Sequence of Cytochrome P450 2C19 (P33261 whole entry): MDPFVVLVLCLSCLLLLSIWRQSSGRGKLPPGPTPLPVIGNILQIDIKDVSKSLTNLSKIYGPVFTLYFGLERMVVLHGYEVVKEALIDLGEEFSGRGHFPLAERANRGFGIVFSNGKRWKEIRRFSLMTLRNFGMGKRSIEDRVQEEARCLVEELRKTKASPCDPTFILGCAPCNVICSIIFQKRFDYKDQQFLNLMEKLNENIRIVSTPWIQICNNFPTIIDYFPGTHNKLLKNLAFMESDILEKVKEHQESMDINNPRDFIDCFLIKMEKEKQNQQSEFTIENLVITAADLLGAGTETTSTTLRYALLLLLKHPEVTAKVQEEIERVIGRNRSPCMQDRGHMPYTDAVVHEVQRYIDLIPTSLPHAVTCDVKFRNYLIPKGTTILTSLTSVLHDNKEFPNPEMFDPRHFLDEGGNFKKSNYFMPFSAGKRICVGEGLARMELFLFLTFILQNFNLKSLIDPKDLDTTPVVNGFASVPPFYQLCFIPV

## Cc1ccc(C)c(NC(=S)NC(=O)c2cncc(Br)c2)c1
[1]
  IC50: > 66 µM (inactive)
[2]
  IC50: > 66 µM (inactive)
[3]
  EC50: 4.77 µM (active)

## Cc1ccc(-c2cc(C(=O)NCc3ccco3)c3ccccc3n2)o1
Estrogen receptor beta [4]
  IC50: 3.37 µM (active)
Estrogen receptor beta [5]
  IC50: > 50 µM (not active)
Estrogen receptor
  IC50: 6.84 µM (active)
[6]
  IC50: 4.39 µM (active)
[7]
  EC50: > 112 µM (not active)
[8]
  EC50: 36.8 µM (active)

## Cc1ccc(OCC(=O)c2c(N)n(C)c(=O)n(C)c2=O)c([N+](=O)[O-])n1
[9]
  IC50: 8.63 µM (active)
Bcl-2-like protein 1
  IC50: 21.3 µM (not active)
Caspase-6
  AC50: 18.9 µM (active)
Albumin
  IC50: > 94.1 µM (inactive)

## O=C(c1ccco1)[C@@H]1[C@@H]2C(=O)N(c3ccccc3)C(=O)[C@@H]2C2c3ccccc3C=CN21 (stereo partly drawn)
[10]
  IC50: 23.4 µM (active)
[11]
  EC50: 34.9 µM (active)
[12]
  EC50: 39.1 µM (active)

## O=C(O)C1CCCCC1C(=O)NCCc1c[nH]c2ccccc12 (stereo not drawn)
Protein skinhead-1
  IC50: > 100 µM (inactive)
[13]
  EC50: 34.8 µM (not active)

## Cc1cc(NC(=O)c2ccc3c(c2)C(=O)N(Cc2cccnc2)C3=O)no1
[14]
  IC50: > 100 µM (not active)
[15]
  IC50: 13.7 µM (not active)

## C(=Nc1ncnc2sccc12)NOCc1ccccc1
[16]
  EC50: > 120 µM (not active)

## C/C(=N\OC(=O)c1ccccc1)c1cc(-c2ccc(Cl)cc2)no1
Cytochrome P450 2D6
  AC50: inconclusive
[17]
  EC50: < 100 nM (active)
[18]
  EC50: 1.04 µM (active)
Cytochrome P450 2C19
  AC50: 22.4 µM (inconclusive)
H4
  EC50: 68.1 µM (active)
[19]
  EC50: 1.28 µM (active)
[20]
  EC50: 4.74 µM (active)
